Laboratory results reported in patent publication US20250051862A1, “METHODS AND COMPOSITIONS RELATED TO ENGINEERED BIOSENSORS” (priority 2021, published 2025).
In brackets after ≈: the same amount, converted by molar mass.

B1: RamR: multidrug resistance regulator from Salmonella typhimurium, template for sensor evolution (protein)
chain: MVARPKSEDKKQALLEAATQAIAQSGIAASTAVIARNAGVAEGTLFRYFATKDELINTLYLHLRQDLCQSLIMELDRSITDAKMMMRFIWNSGISWGLNHPARHRAIRQLAVSEKLTKETHQRDLDMFPELRDILHRRVLMVFMSDEYRAFGDGLFLALAETTMDFAARDPARAGEYIALGFEAMWRALTREEQ
modifications: Description of sequence peptide sensor; Name PAP4; This sensor binds to papaverine
notes: multidrug resistance regulator from Salmonella typhimurium, template for sensor evolution

Key:
[1] = Solubility limit of BIAs in 1% DMSO; type: physicochemical; conditions: used as maximum ligand concentration
Description: (a) Transfer functions for all four generations of RamR variants with five different BIAs. The maximum ligand concentration was chosen based on the compound's solubility limit in 1% DMSO, 100 μM for Noscapine and 250 μM for all other BIAs. Fluorescent measurements for each condition were an average of three biological replicates. (b) Background fluorescence measurements for all RamR generations. The same promoter was used to express variants from each evolutionary trajectory (see methods) (c) Orthogonality matrix of all evolved sensors. Fold-response is shown for all BIAs for the native RamR protein, the first, second, third, and fourth generations from top to bottom, respectively. 100 μM of the indicated BIA was applied in all conditions. Measurements for each condition were an average of three biological replicates.

RamR = target: T1, RamR (Salmonella typhimurium, UniProt Q8ZR43); experiment: Biosensor response assay: fluorescence response of multidrug resistance regulators to target BIAs; type: cell-based, Escherichia coli; conditions: E. coli DH10B, pReg + pGFP (sfGFP); glaucine 1 mM, noscapine 100 uM, papaverine 500 uM, rotundine 250 uM, tetrahydropapaverine 1 mM
T1 construct: expressed in transfected cells; host or cells: E. coli DH10B co-transformed with pReg (regulator) and pGFP (reporter)
T1 sequence (Q8ZR43 whole entry, looked up): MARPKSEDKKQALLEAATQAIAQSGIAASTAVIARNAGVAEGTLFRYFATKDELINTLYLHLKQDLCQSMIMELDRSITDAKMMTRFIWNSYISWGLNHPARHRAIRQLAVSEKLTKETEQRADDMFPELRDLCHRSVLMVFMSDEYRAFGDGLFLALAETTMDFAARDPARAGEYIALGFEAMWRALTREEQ
Description: To identify a biosensor with some degree of BIA affinity to serve as a suitable scaffold for evolution, the responsiveness of six well characterized multidrug resistance regulators, QacR, TtgR, RamR, SmeT, NalD, and Bm3R1 to the target BIAs were assayed. Regulators were constitutively expressed on one plasmid (pReg) that was co-transformed with another plasmid bearing the regulator's cognate promoter expressing sfGFP (pGFP). Promoters for QacR and TtgR were obtained from the literature while promoters for the remainder were designed by either placing the sensor's operator downstream a medium strength promoter (Bm3R1) or by modifying the −35 or −10 regions of the sensor's native promoter towards the E. coli consensus (NalD, SmeT, RamR) [18*, 18**] if necessary to produce sufficient transcription (FIG. 7a). The ability of each regulator to repress transcription was confirmed by measuring the promoter activity with and without the expression of the cognate sensor via fluorescence (FIG. 7b). […]
Promoters for TtgR and QacR were derived from the literature. […] 100 μL of the cell resuspension for each condition was transferred to a 96 well microtiter plate (Corning, Product #: 3904), from which the fluorescence (Ex: 485 nm, Em: 509 nm) and absorbance ([…]) was measured using the Tecan Infinite M1000 plate reader.

Row | Molecule | solubility limit in 1% DMSO [1] [µM] | Fluorescence response to target BIAs (RamR)
1 | COc1ccc2c(c1OC)C(=O)O[C@@H]2[C@H]1c2c(cc3c(c2OC)OCO3)CCN1C [Noscapine, noscapine] | 100 (≈ 41.3 µg/mL) | –
2 | B1 | – | moderately responsive
